Among the test systems are HT29 colon; SF-539 CNS; NCI-H522 lung; TK-10 renal; IGROV1 ovarian; UACC-257 melanoma; LOX IMVI melanoma; U251 CNS; SN12C renal; ACHN renal.
Holding throughout (experiment): inhibition of tumour cell growth, NCI panel, 48 h

Molecules are shown by their SMILES.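 All cell lines were grown in 96-well plates and treated with compound for 48 hours. GI50 = concentration required for 50% inhibition of growth. At the TGI there is no net growth.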

As to `COc1ccc(-c2nc(-c3nc4ccc(C(F)(F)F)cc4[nH]3)c3ccccn23)cc1`, the GI50 in the assay on HT29 colon is 58.2 µM; in the assay with SF-539 CNS, more than 100 µM; with NCI-H522 lung, more than 100 µM; in the assay with TK-10 renal, more than 100 µM; in the assay with IGROV1 ovarian, more than 100 µM; in the assay on UACC-257 melanoma it was more than 100 µM. In addition, the GI50 is 31.3 µM in the assay on LOX IMVI melanoma, more than 100 µM in the assay on U251 CNS, more than 100 µM in the assay with SN12C renal and 63.5 µM in the assay on ACHN renal. The TGI in the assay on HT29 colon, in the assay with SF-539 CNS, with NCI-H522 lung, in the assay on TK-10 renal, in the assay on IGROV1 ovarian and in the assay with UACC-257 melanoma was more than 100 µM throughout. Moreover, the TGI in the assay with LOX IMVI melanoma, with U251 CNS, in the assay on SN12C renal and in the assay with ACHN renal was more than 100 µM each time.

Consider `Cn1c2ccccc2c2nnc(NNCc3ccccn3)nc21`, for which the GI50 in the assay with HT29 colon was 0.526 µM; in the assay with SF-539 CNS, 0.393 µM; in the assay on NCI-H522 lung, 0.546 µM; in the assay on TK-10 renal it was 0.614 µM; in the assay with IGROV1 ovarian, 0.364 µM; in the assay with UACC-257 melanoma it was 0.641 µM. The GI50 was 0.349 µM in the assay on LOX IMVI melanoma, 0.446 µM with U251 CNS, 0.462 µM in the assay on SN12C renal and 0.305 µM in the assay with ACHN renal. The TGI was found to be 22.9 µM in the assay on HT29 colon; 3.38 µM in the assay with SF-539 CNS; 18.1 µM in the assay with NCI-H522 lung; 14.3 µM in the assay with TK-10 renal; 4.79 µM in the assay on IGROV1 ovarian; 11.1 µM in the assay on UACC-257 melanoma. Moreover, the TGI in the assay on LOX IMVI melanoma came to 4.51 µM; in the assay with U251 CNS, 14.4 µM; in the assay with SN12C renal it was 14.6 µM; with ACHN renal, 2.37 µM.

For `CC(=O)NC1=C(Sc2ccc(Cl)cc2)C(=O)c2ccccc2C1=O`, the TGI was found to be 25.6 µM with HT29 colon; 5.85 µM with SF-539 CNS; 1.18 µM in the assay on NCI-H522 lung; 13.5 µM in the assay with TK-10 renal; 17.1 µM in the assay with IGROV1 ovarian; 17.3 µM in the assay on UACC-257 melanoma. The TGI in the assay with LOX IMVI melanoma was 14 µM; with U251 CNS, 14.9 µM; in the assay on SN12C renal, 16.2 µM; in the assay on ACHN renal it was 4.85 µM.

Turning to `O=Nc1c(O)c2ccccc2c2ccccc12`, the GI50 in the assay with HT29 colon is 2.83 µM; with SF-539 CNS, 0.379 µM; with NCI-H522 lung it was 1.26 µM; in the assay with TK-10 renal it was 2.7 µM; in the assay with IGROV1 ovarian it was 1.83 µM; in the assay with UACC-257 melanoma, 0.476 µM. Moreover, the GI50 with LOX IMVI melanoma was 0.294 µM; in the assay with U251 CNS, 0.496 µM; with SN12C renal it was 0.449 µM; in the assay on ACHN renal it was 1.02 µM. The TGI was determined as 7.88 µM in the assay with HT29 colon; 1.6 µM with SF-539 CNS; 3.58 µM in the assay with NCI-H522 lung; 7.9 µM in the assay on TK-10 renal; 3.51 µM in the assay with IGROV1 ovarian; 1.75 µM in the assay on UACC-257 melanoma. In addition, the TGI turned out to be 1.06 µM in the assay with LOX IMVI melanoma, 2.09 µM in the assay on U251 CNS, 1.88 µM in the assay on SN12C renal and 7.1 µM in the assay with ACHN renal.

Turning to `O=C(CC1C(=O)Nc2ccccc2S1(=O)=O)Nc1cccc(Cl)c1` (stereo not given), the TGI in the assay on HT29 colon came to 32.3 µM; in the assay on SF-539 CNS it was 22.8 µM; with NCI-H522 lung, 31.7 µM; in the assay on TK-10 renal it was 46.6 µM; in the assay with IGROV1 ovarian it was 33.4 µM; in the assay on UACC-257 melanoma, 50 µM. The TGI in the assay on LOX IMVI melanoma was determined as 28.6 µM; in the assay on U251 CNS it was 26.4 µM; in the assay with SN12C renal, 29.5 µM; in the assay with ACHN renal, 33.5 µM.

Regarding `Cc1ccc(S(=O)(=O)SCc2ccccc2)cc1`, the TGI with HT29 colon was 47.1 µM; in the assay with SF-539 CNS it was 45.7 µM; in the assay on NCI-H522 lung, 20.9 µM; with TK-10 renal, more than 100 µM; in the assay on IGROV1 ovarian it was more than 100 µM; in the assay on UACC-257 melanoma, more than 94.2 µM. Also, the TGI was 37.2 µM in the assay with LOX IMVI melanoma, 58.8 µM with U251 CNS, 50.4 µM with SN12C renal and more than 100 µM in the assay with ACHN renal.

In the case of `CCc1ncnc2cc(OCC3CO3)c(OC)cc12` (stereo not given), the TGI in the assay with HT29 colon is more than 100 µM; in the assay with SF-539 CNS, 25.2 µM; with NCI-H522 lung, 9.94 µM; with TK-10 renal it was 69.5 µM; in the assay on IGROV1 ovarian, 6.8 µM; in the assay with UACC-257 melanoma, 52.9 µM. The TGI in the assay on LOX IMVI melanoma was more than 46.9 µM; in the assay with U251 CNS, more than 100 µM; in the assay with SN12C renal it was 16.7 µM; with ACHN renal, 21.6 µM.

As for `CCN(Cc1cccc(F)c1F)c1ccc(CO)c(Cl)c1`, the GI50 with HT29 colon was 3.83 µM; in the assay with SF-539 CNS, 15.5 µM; with NCI-H522 lung, 14.1 µM; with TK-10 renal it was 0.0385 µM; with IGROV1 ovarian it was 0.0668 µM; in the assay with UACC-257 melanoma it was 0.0896 µM. Also, the GI50 with LOX IMVI melanoma is 15.8 µM; in the assay on U251 CNS, 0.63 µM; in the assay on SN12C renal it was 13.4 µM; in the assay on ACHN renal, 17.8 µM. Besides, the TGI in the assay on HT29 colon is 19 µM; with SF-539 CNS, 30.2 µM; in the assay with NCI-H522 lung, 31.2 µM; with TK-10 renal, 0.23 µM; in the assay on IGROV1 ovarian, 0.335 µM; with UACC-257 melanoma, 0.326 µM. For the same compound, the TGI in the assay with LOX IMVI melanoma is 30.7 µM; in the assay with U251 CNS, 22.2 µM; in the assay on SN12C renal, 30.2 µM; in the assay on ACHN renal, more than 51.7 µM.

Regarding `NCCN1C(=O)c2ccccc2C1(O)c1ccc(Cl)cc1` (stereo not given), the TGI in the assay with HT29 colon amounted to 39.8 µM; with SF-539 CNS, 43.2 µM; with NCI-H522 lung, 27.9 µM; in the assay on TK-10 renal, 36.1 µM; in the assay with IGROV1 ovarian, 41 µM; in the assay on UACC-257 melanoma it was 31.8 µM. The TGI with LOX IMVI melanoma was 32.8 µM; with U251 CNS it was 29.6 µM; in the assay on SN12C renal, more than 100 µM; in the assay with ACHN renal, 59.3 µM.

Take `Oc1ccccc1C=Nc1ccccc1N=Cc1ccccc1O.[Cu+2]`: the GI50 in the assay with HT29 colon was 13.7 µM; in the assay on SF-539 CNS it was 11.8 µM; in the assay on NCI-H522 lung, 2.55 µM; in the assay on TK-10 renal, 10.5 µM; in the assay on IGROV1 ovarian, 3.27 µM; in the assay on UACC-257 melanoma, 4.08 µM. The GI50 in the assay with LOX IMVI melanoma is 2.85 µM; in the assay on U251 CNS, 3.4 µM; in the assay with SN12C renal, 4.84 µM; in the assay with ACHN renal, 5.64 µM. Besides, the TGI with HT29 colon is 32 µM; in the assay with SF-539 CNS, 27.7 µM; in the assay with NCI-H522 lung, 12.3 µM; in the assay with TK-10 renal, 23.8 µM; in the assay on IGROV1 ovarian, 20.1 µM; in the assay on UACC-257 melanoma, 15.6 µM. Besides, the TGI with LOX IMVI melanoma is 13.3 µM; in the assay with U251 CNS, 14 µM; with SN12C renal, 18.7 µM; in the assay with ACHN renal, 22.2 µM.

(Values after PubChem BioAssay (NCI).)
